Measurements published in patent US9266879B2, “Naphthridine derivatives as PI3K inhibitors for the treatment of cancer and immune-inflammatory disease” (Karus Therapeutic Limited, priority 2010, dated 2016).
Where two headings read alike, the source gives them in different places.

Legend:
[1] = target: PI3K-p110β (Homo sapiens, UniProt P42338); assay: Biochemical PI3K-p110β inhibition
[2] = system: MCF7 Breast Tumour Cell; assay: MCF7 breast tumour cell growth inhibition; assay type: cell-based; conditions: Homo sapiens
[3] = target: PI3K-p110δ (Homo sapiens, UniProt O00329); assay: PI3K-p110δ inhibition; assay type: biochemical
PI3K-p110δ, sequence (O00329 whole entry): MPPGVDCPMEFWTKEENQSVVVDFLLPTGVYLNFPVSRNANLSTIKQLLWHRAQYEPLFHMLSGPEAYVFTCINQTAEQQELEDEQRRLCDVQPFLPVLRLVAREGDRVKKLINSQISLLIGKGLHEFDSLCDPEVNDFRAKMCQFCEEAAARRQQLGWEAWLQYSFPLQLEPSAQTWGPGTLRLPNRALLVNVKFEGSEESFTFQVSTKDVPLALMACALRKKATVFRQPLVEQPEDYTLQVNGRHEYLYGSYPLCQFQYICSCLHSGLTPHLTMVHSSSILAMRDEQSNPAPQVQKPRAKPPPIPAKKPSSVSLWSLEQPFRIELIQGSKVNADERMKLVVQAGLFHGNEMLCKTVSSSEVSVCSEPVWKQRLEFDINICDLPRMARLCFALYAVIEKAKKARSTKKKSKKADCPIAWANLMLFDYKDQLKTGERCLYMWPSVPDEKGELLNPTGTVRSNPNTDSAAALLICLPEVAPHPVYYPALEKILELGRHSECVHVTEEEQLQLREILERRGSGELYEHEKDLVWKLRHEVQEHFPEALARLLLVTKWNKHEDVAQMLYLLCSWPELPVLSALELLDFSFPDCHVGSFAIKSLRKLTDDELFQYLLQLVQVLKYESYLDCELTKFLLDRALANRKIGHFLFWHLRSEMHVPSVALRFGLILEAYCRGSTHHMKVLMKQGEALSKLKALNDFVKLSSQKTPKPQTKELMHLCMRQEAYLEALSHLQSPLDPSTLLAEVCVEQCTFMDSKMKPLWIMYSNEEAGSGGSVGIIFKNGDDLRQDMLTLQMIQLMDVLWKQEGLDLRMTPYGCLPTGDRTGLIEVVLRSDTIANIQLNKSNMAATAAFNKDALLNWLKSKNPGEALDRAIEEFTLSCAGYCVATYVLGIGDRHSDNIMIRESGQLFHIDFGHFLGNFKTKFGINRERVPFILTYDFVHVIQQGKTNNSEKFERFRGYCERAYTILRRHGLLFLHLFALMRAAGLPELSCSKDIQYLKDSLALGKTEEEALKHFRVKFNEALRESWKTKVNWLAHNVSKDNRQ
PI3K-p110δ, sequence (P27986 whole entry partner): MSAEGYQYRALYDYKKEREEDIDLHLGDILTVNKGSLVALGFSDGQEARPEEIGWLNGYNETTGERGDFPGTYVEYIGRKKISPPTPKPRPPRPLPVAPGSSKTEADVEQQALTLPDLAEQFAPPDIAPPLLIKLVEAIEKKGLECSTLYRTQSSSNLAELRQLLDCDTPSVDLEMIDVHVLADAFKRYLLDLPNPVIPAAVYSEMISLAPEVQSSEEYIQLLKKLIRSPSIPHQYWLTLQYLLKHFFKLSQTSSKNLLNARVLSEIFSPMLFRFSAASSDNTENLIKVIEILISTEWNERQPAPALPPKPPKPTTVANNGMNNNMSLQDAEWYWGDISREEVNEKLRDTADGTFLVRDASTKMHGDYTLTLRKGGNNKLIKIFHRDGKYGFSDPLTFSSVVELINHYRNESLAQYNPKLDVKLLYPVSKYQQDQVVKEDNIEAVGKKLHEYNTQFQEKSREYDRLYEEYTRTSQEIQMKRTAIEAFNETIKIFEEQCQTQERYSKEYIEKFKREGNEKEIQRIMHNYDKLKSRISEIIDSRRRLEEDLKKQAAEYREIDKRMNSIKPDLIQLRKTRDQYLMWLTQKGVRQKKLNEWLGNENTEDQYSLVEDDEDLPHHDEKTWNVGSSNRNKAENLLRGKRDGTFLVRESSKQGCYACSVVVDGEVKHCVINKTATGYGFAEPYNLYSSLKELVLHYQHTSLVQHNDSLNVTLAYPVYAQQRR

[4] = target: PI3K-p110γ (Homo sapiens, UniProt P48736); assay: PI3K-p110γ inhibition; assay type: biochemical
PI3K-p110γ, sequence (P48736 whole entry): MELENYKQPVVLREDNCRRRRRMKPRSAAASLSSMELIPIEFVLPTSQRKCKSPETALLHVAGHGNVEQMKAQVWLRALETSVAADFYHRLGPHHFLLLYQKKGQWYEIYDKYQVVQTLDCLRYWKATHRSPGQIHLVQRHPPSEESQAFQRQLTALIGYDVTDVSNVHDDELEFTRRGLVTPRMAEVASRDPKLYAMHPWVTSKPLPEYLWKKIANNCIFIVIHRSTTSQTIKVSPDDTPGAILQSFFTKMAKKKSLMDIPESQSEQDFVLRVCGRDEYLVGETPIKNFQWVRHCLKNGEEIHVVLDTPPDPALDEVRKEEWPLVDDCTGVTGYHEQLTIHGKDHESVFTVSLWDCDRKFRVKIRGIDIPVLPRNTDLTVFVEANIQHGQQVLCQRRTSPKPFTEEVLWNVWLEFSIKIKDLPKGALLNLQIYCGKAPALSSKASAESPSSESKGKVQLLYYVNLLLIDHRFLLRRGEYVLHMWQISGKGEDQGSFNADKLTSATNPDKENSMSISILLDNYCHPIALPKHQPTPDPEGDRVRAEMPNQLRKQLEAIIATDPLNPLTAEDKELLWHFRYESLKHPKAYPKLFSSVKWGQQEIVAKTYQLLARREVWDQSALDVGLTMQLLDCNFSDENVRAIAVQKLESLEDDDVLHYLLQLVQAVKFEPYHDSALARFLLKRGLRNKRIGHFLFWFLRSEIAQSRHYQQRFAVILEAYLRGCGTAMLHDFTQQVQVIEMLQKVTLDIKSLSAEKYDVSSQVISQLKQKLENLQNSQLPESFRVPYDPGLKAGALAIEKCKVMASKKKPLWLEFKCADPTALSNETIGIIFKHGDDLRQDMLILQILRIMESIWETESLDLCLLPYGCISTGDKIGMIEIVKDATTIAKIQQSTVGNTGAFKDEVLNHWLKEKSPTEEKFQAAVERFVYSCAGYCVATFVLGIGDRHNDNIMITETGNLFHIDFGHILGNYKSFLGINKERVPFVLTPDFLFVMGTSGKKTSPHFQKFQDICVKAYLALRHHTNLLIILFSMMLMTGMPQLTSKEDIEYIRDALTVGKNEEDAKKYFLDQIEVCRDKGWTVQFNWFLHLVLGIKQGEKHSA

[5] = target: PI3K-p110α (Homo sapiens, UniProt P42336); assay: PI3K-p110α inhibition; assay type: biochemical
PI3K-p110α, sequence (P42336 whole entry): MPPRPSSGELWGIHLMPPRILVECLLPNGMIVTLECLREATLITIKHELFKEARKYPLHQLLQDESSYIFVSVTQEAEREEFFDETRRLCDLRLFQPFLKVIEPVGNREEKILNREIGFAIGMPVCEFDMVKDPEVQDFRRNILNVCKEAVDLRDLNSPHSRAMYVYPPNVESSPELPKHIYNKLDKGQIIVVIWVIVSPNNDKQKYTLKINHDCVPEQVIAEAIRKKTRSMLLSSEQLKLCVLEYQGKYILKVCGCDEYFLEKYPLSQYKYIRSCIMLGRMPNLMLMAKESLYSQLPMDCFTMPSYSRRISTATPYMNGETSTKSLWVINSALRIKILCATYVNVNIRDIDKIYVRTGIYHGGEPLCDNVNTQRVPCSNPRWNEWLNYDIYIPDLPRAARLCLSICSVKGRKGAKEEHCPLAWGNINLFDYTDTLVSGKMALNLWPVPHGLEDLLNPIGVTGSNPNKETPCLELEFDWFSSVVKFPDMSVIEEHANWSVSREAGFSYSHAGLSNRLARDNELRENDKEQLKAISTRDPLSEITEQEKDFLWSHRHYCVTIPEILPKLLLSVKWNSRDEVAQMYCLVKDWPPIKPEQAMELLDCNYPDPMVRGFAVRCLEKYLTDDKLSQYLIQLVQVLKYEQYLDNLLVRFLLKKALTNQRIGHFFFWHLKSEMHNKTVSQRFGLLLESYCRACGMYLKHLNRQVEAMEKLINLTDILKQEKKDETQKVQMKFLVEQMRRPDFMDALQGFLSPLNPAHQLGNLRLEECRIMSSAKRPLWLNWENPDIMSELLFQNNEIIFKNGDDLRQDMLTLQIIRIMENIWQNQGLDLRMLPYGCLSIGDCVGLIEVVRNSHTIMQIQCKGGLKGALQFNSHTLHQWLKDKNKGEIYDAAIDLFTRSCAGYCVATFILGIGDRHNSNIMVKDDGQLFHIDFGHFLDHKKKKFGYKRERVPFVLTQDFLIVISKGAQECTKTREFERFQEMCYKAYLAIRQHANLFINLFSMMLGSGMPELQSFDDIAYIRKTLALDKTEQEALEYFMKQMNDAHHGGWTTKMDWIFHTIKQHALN
PI3K-p110α, sequence (P27986 whole entry partner): as the sequence (P27986 whole entry partner) above

[6] = read-out: Biochemical IC50, PI3K-p110β

PI3K-p110β, sequence (P42338 whole entry): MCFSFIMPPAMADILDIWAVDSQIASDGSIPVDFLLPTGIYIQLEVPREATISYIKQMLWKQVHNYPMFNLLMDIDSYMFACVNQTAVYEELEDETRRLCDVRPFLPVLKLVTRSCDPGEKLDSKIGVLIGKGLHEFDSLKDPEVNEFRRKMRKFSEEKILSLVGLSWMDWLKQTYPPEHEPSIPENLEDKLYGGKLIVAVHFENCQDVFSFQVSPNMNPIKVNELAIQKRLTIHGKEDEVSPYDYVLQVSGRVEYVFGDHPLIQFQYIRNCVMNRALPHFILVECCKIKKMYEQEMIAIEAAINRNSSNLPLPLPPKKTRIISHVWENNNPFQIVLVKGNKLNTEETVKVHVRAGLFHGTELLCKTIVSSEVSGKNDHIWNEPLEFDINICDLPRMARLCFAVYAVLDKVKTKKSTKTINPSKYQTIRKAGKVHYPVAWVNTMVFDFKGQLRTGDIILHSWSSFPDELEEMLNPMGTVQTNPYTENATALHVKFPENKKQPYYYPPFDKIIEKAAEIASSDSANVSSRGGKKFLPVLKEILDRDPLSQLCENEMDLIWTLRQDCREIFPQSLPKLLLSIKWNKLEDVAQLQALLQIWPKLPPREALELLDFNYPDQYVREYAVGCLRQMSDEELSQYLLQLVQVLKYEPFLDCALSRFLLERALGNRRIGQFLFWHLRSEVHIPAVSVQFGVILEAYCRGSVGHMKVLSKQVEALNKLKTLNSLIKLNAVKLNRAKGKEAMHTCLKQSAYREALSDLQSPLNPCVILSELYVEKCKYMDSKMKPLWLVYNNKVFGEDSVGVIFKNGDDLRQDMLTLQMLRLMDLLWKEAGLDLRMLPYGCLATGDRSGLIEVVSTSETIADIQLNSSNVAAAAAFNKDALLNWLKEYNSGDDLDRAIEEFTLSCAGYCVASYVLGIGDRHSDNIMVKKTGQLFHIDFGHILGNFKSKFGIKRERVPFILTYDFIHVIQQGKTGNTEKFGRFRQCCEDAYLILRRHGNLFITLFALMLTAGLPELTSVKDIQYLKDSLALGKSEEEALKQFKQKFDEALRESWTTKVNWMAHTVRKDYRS
PI3K-p110β, sequence (P27986 whole entry partner): as the sequence (P27986 whole entry partner) above

| IC50 [1, 6] | IC50 [2] | IC50 ([1]; isoform panel, second part of table, read-out: IC50 PI3K-p110β) | IC50 [3] | IC50 [4] | IC50 [5] | SMILES |
| --- | --- | --- | --- | --- | --- | --- |
| 0.69 µM | 6.06 µM | – | – | – | – | Nc1ccc(-c2cc3ncccc3c(N3CCOCC3)n2)cc1Cl [E, 2-Chloro-4-(5-morpholin-4-yl-[1,6]naphthyridin-7-yl)-phenylamine] |
| 3.7 µM | 10.9 µM | – | – | – | – | Nc1ccc(-c2cc3ncccc3c(N3CCOCC3)n2)c(Cl)c1 [F, 3-Chloro-4-(5-morpholin-4-yl-[1,6]naphthyridin-7-yl)-phenylamine] |
| – | – | 3.4 µM | 0.26 µM | > 10 µM | > 10 µM | c1cc(-c2cc3ncccc3c(N3CCOCC3)n2)c2cc[nH]c2c1 [G, 7-(1H-Indol-4-yl)-5-morpholin-4-yl-1,6-naphthyridine] |
